Results from the supplement of paper PMC4862054.

Tests used:
Conditions in all cases: incubation time: 72 h
[1] = system: MDA-MB-231; experiment: normalised viability (% of control), CellTiter-Blue; higher = more viable cells (about 100 = DMSO control)
Outline: (§1)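 Normalised viability is given for a single listed concentration of the series. In 384-well plates, breast cancer cell lines were incubated 72 h with compound, then read with CellTiter-Blue (2 h, 37 °C) at 560/590 nm. Per-plate scaling set vehicle to 100 and a positive kill control to 0, with Z'-factor quality control.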

[2] = system: MDA-MB-436; experiment: as above
Outline: as §1

[3] = system: HCC1937; experiment: as above
Outline: as §1

[4] = system: CAL-120; experiment: as above
Outline: as §1

[5] = system: HDQ-P1; experiment: as above
Outline: as §1

[6] = system: SK-BR-3; experiment: as above
Outline: as §1

[7] = system: DU-4475; experiment: as above
Outline: as §1

[8] = system: MCF-10A; experiment: normalised response (% of control), CellTiter-Glo; higher = more viable cells (100 = DMSO, 0 = benzethonium chloride kill control)
Outline: (§2)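 Each entry is the normalised signal at a single concentration within a series. The series comprised 5 concentrations in 10-fold steps over a compound-specific 10,000-fold range, placed in 384-well plates into which breast cancer cell lines were seeded as 20 µl suspension and incubated 72 h. CellTox Green (485/520 nm) fluorescence and then CellTiter-Glo luminescence were read, with signals normalised per plate to 0.1 % DMSO (100) and a positive kill control (0).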

[9] = system: HCC1143; experiment: as above
Outline: as §2

[10] = system: BT-549; experiment: as above
Outline: as §2

[11] = system: MDA-MB-231; experiment: as above
Outline: as §2

[12] = system: HCC1599; experiment: as above
Outline: as §2

[13] = system: MDA-MB-436; experiment: as above
Outline: as §2

[14] = system: CAL-85-1; experiment: as above
Outline: as §2

[15] = system: MDA-MB-468; experiment: as above
Outline: as §2

[16] = system: BT-474; experiment: as above
Outline: as §2

[17] = system: MDA-MB-453; experiment: as above
Outline: as §2

[18] = system: HCC1937; experiment: as above
Outline: as §2

[19] = system: MFM-223; experiment: as above
Outline: as §2

[20] = system: CAL-120; experiment: as above
Outline: as §2

[21] = system: Hs578T; experiment: as above
Outline: as §2

[22] = system: CAL-148; experiment: as above
Outline: as §2

[23] = system: CAL-51; experiment: as above
Outline: as §2

[24] = system: HDQ-P1; experiment: as above
Outline: as §2

[25] = system: SK-BR-3; experiment: as above
Outline: as §2

[26] = system: HCC1599; experiment: normalised response (% of control), CellTox Green; higher = less cell death (100 = DMSO, 0 = benzethonium chloride kill control)
Outline: as §2

[27] = system: CAL-148; experiment: as above
Outline: as §2

Compound: CC(C)C(=O)Nc1ccc([N+](=O)[O-])c(C(F)(F)F)c1 [Flutamide]
- normalised viability ([1]; 10 nM): 93.7%
- normalised viability ([1]; 1000 nM): 99.5%
- normalised viability ([1]; 10000 nM): 102%
- normalised viability ([2]; 10 nM): 91.5%
- normalised viability ([2]; 1000 nM): 95.4%
- normalised viability ([2]; 10000 nM): 91.6%
- normalised viability ([3]; 10 nM): 96.9%
- normalised viability ([3]; 1000 nM): 84.2%
- normalised viability ([3]; 10000 nM): 97%
- normalised viability ([4]; 10 nM): 96.7%
- normalised viability ([4]; 1000 nM): 95.6%
- normalised viability ([4]; 10000 nM): 96.8%
- normalised viability ([5]; 3 nM): 109%
- normalised viability ([5]; 30 nM): 105%
- normalised viability ([5]; 100 nM): 109%
- normalised viability ([6]; 10 nM): 108%
- normalised viability ([6]; 1000 nM): 106%
- normalised viability ([6]; 10000 nM): 106%
- normalised viability ([7]; 3 nM): 111%
- normalised viability ([7]; 30 nM): 85.1%
- normalised viability ([7]; 100 nM): 97.2%

Compound: COc1cc2c(Oc3ccc(NC(=O)C4(C(=O)Nc5ccc(F)cc5)CC4)cc3F)ccnc2cc1OCCCN1CCOCC1 [Foretinib]
- normalised viability ([1]; 1 nM): 97.8%
- normalised viability ([1]; 100 nM): 113%
- normalised viability ([1]; 1000 nM): 50.6%
- normalised viability ([2]; 1 nM): 132%
- normalised viability ([2]; 100 nM): 77.8%
- normalised viability ([2]; 1000 nM): 84%
- normalised viability ([3]; 1 nM): 80.8%
- normalised viability ([3]; 100 nM): 91.3%
- normalised viability ([3]; 1000 nM): 64.9%
- normalised viability ([4]; 1 nM): 88.3%
- normalised viability ([4]; 100 nM): 95.4%
- normalised viability ([4]; 1000 nM): 41.8%
- normalised viability ([5]; 0.3 nM): 107%
- normalised viability ([5]; 3 nM): 99.2%
- normalised viability ([5]; 10 nM): 105%
- normalised viability ([6]; 1 nM): 97.5%
- normalised viability ([6]; 100 nM): 102%
- normalised viability ([6]; 1000 nM): 77.5%
- normalised viability ([7]; 0.3 nM): 104%
- normalised viability ([7]; 3 nM): 91.8%
- normalised viability ([7]; 10 nM): 105%

Compound: C[C@]12C=CC(=O)C=C1CC[C@@H]1[C@@H]2C(=O)C[C@@]2(C)[C@H]1CC[C@]2(O)C(=O)CO [Prednisone] (1000 nM)
- normalised response [8]: 108%
- normalised response [9]: 102%
- normalised response [10]: 95.4%
- normalised response [11]: 103%
- normalised response [12]: 113%
- normalised response [13]: 104%
- normalised response [14]: 92.9%
- normalised response [15]: 103%
- normalised response [16]: 104%
- normalised response [17]: 106%
- normalised response [18]: 101%
- normalised response [19]: 101%
- normalised response [20]: 102%
- normalised response [21]: 110%
- normalised response [22]: 105%
- normalised response [23]: 120%
- normalised response [24]: 100%
- normalised response [25]: 103%
- normalised response [26]: 97.7%
- normalised response [27]: 73%

Compound: CN1CCN(c2nc(C3=C(c4c[nH]c5ccccc45)C(=O)NC3=O)c3ccccc3n2)CC1 [Sotrastaurin] (1000 nM)
- normalised response [8]: 95.3%
- normalised response [9]: 92.5%
- normalised response [10]: 101%
- normalised response [11]: 108%
- normalised response [12]: 115%
- normalised response [13]: 102%
- normalised response [14]: 121%
- normalised response [15]: 91.6%
- normalised response [16]: 105%
- normalised response [17]: 102%
- normalised response [18]: 96%
- normalised response [19]: 91.6%
- normalised response [20]: 93.7%
- normalised response [21]: 101%
- normalised response [22]: 88%
- normalised response [23]: 122%
- normalised response [24]: 93.5%
- normalised response [25]: 90.9%
- normalised response [26]: 92.9%
- normalised response [27]: 58.2%

Compound: CC/C(=C(\c1ccccc1)c1ccc(OCCN(C)C)cc1)c1ccccc1 [Tamoxifen] (1000 nM)
- normalised response [8]: 104%
- normalised response [9]: 104%
- normalised response [10]: 96.1%
- normalised response [11]: 103%
- normalised response [12]: 107%
- normalised response [13]: 97.7%
- normalised response [14]: 99.8%
- normalised response [15]: 93.8%
- normalised response [16]: 95.9%
- normalised response [17]: 93.1%
- normalised response [18]: 102%
- normalised response [19]: 97.9%
- normalised response [20]: 94.8%
- normalised response [21]: 106%
- normalised response [22]: 103%
- normalised response [23]: 81.8%
- normalised response [24]: 106%
- normalised response [25]: 103%
- normalised response [26]: 103%
- normalised response [27]: 106%

Compound: COc1cc2c(N3CCN(C(=O)Nc4ccc(OC(C)C)cc4)CC3)ncnc2cc1OCCCN1CCCCC1 [Tandutinib] (100 nM)
- normalised response [8]: 96.6%
- normalised response [9]: 103%
- normalised response [10]: 103%
- normalised response [11]: 106%
- normalised response [12]: 121%
- normalised response [13]: 114%
- normalised response [14]: 109%
- normalised response [15]: 103%
- normalised response [16]: 105%
- normalised response [17]: 97.4%
- normalised response [18]: 100%
- normalised response [19]: 101%
- normalised response [20]: 101%
- normalised response [21]: 96.3%
- normalised response [22]: 101%
- normalised response [23]: 96.2%
- normalised response [24]: 102%
- normalised response [25]: 98.4%
- normalised response [26]: 91.2%
- normalised response [27]: 100%

Compound: Cn1nnc2c(C(N)=O)ncn2c1=O [Temozolomide] (1000 nM)
- normalised response [8]: 104%
- normalised response [9]: 98.1%
- normalised response [10]: 101%
- normalised response [11]: 93.3%
- normalised response [12]: 116%
- normalised response [13]: 104%
- normalised response [14]: 99.4%
- normalised response [15]: 91.8%
- normalised response [16]: 95.4%
- normalised response [17]: 100%
- normalised response [18]: 93.9%
- normalised response [19]: 94.8%
- normalised response [20]: 99.3%
- normalised response [21]: 91.7%
- normalised response [22]: 97.6%
- normalised response [23]: 76.4%
- normalised response [24]: 98.8%
- normalised response [25]: 92%
- normalised response [26]: 94.6%
- normalised response [27]: 95.8%

Compound: CC[C@@H]1C(=O)N(C)c2cnc(Nc3ccc(C(=O)N[C@H]4CC[C@H](N5CCN(CC6CC6)CC5)CC4)cc3OC)nc2N1C(C)C [Volasertib] (100 nM)
- normalised response [8]: 58.5%
- normalised response [9]: 50.5%
- normalised response [10]: 25.9%
- normalised response [11]: 48.5%
- normalised response [12]: 45.6%
- normalised response [13]: 50.1%
- normalised response [14]: 53%
- normalised response [15]: 36.5%
- normalised response [16]: 63.6%
- normalised response [17]: 77.3%
- normalised response [18]: 81%
- normalised response [19]: 42%
- normalised response [20]: 64.4%
- normalised response [21]: 54.6%
- normalised response [22]: 53%
- normalised response [23]: 23.7%
- normalised response [24]: 76.6%
- normalised response [25]: 16.1%
- normalised response [26]: 72.2%
- normalised response [27]: 31.8%
